PubChem BioAssay (NCI)
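Results reflect a 48-hour exposure of cells in 96-well plates to compound at five concentrations. TGI is the concentration that stops growth completely.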

Assays:
Experiment in all cases: DTP human tumour cell line panel, 48 h
[1] = test system: SK-OV-3 ovarian
[2] = test system: SF-295 CNS
[3] = test system: SK-MEL-5 melanoma
[4] = test system: A549 NSCLC
[5] = test system: U251 CNS
[6] = test system: UACC-62 melanoma
[7] = test system: KM20L2 colon
[8] = test system: IGROV1 ovarian
[9] = test system: UACC-257 melanoma
[10] = test system: HOP-62 NSCLC
[11] = test system: NCI-H23 lung
[12] = test system: EKVX NSCLC
[13] = test system: OVCAR-8 ovarian
[14] = test system: DMS 273 small cell lung
[15] = test system: OVCAR-4 ovarian
[16] = test system: UO-31 renal
[17] = test system: HT29 colon
[18] = test system: DMS 114 small cell lung
[19] = test system: NCI-H226 lung
[20] = test system: SN12C renal
[21] = test system: SF-539 CNS
[22] = test system: SR leukemia
[23] = test system: SNB-78 CNS
[24] = test system: SF-268 CNS
[25] = test system: KM12 colon
[26] = test system: COLO 205 colon
[27] = test system: SK-MEL-2 melanoma
[28] = test system: RXF 393 renal
[29] = test system: LXFL 529 NSCLC
[30] = test system: OVCAR-5 ovarian
[31] = test system: SW-620 colon
[32] = test system: M19-MEL melanoma
[33] = test system: CCRF-CEM leukemia
[34] = test system: 786-0 renal
[35] = test system: SK-MEL-28 melanoma
[36] = test system: CAKI-1 renal
[37] = test system: SNB-19 CNS
[38] = test system: ACHN renal
[39] = test system: HL-60(TB) leukemia
[40] = test system: A498 renal
[41] = test system: DLD-1 colon
[42] = test system: K-562 leukemia
[43] = test system: TK-10 renal
[44] = test system: MALME-3M melanoma
[45] = test system: MOLT-4 leukemia
[46] = test system: LOX IMVI melanoma
[47] = test system: NCI-H460 lung
[48] = test system: NCI-H522 lung
[49] = test system: HOP-92 NSCLC
[50] = test system: OVCAR-3 ovarian
[51] = test system: SNB-75 CNS
[52] = test system: HCT-15 colon
[53] = test system: HCC-2998 colon
[54] = test system: XF 498 CNS
[55] = test system: M14 melanoma
[56] = test system: RPMI-8226 leukemia
[57] = test system: HCT-116 colon
[58] = test system: HOP-18 NSCLC

Measured: TGI

O=c1cc2n(c(=O)[nH]1)C1OC(C(O)C1O)[C@H]2CCO (stereo partly drawn)
not listed: [50] | [51] | [52] | [53] | [54] | [55] | [56] | [57] | [58]
> 100 µM: all other assays above

Cc1ccc(S(=O)(=O)NC(=O)C2(Br)S(=O)(=O)OCCOS2(=O)=O)cc1
not listed: [2] | [25] | [31] | [36] | [58]
> 100 µM: all other assays above

Cc1c(/C=N/NC(=O)c2ccccc2)c(=O)n(-c2ccccc2)n1C
not listed: [3] | [30] | [36]
> 100 µM: all other assays above

Cc1cc2c(cc1C)N1Cc3c(ccc(C)c3C)N(C2)C1 (tested in a mixture with another compound)
not listed: [9] | [16] | [20] | [22] | [27] | [30] | [36] | [38] | [40] | [44] | [49] | [52]
> 100 µM: all other assays above
